Measured values published in article PMC10590419, “Structural and mechanistic insights into the inhibition of respiratory syncytial virus polymerase by a non-nucleoside inhibitor” (Communications Biology, 2023).

Key:
[1] = tested on: rgRSV224 (RSV A2 reporter virus); assay: Inhibition of rgRSV224 reporter RSV in HeLa cells (GFP); conditions: human respiratory syncytial virus, 72 h, read-out: Median EC50
[2] = in vitro; conditions: rhesus monkey
[3] = tested on: RSV B clinical isolates and laboratory strains; assay: Inhibition of RSV-B clinical isolates and laboratory strains, RT-qPCR, HeLa; assay type: cell-based; conditions: human respiratory syncytial virus, 6 strains, read-out: Median EC50
Description: Then, 100 µL of a HeLa cell suspension (5 × 10^4 cells/mL) in culture medium was added to each well. […] After 3 days of incubation, the supernatant was removed from wells. Plates were washed twice with ice-cold PBS (100 µL/well), and were then sealed and stored overnight at −80 °C. Next, 50 µL of lysis solution supplemented with DNAse was added to the plates and incubated for 5 min followed by the addition of 5 µL stop solution (Ambion Cell-to-CT bulk lysis reagent buffer). […] Roche) for cDNA synthesis. Reverse transcription was performed at 42 °C for 30 min, followed by denaturation at 95 °C for 5 min. […] The reaction consisted of a denaturation step (95 °C for 600 s), 45 cycles of denaturation (95 °C for 15 s) and annealing/elongation (60 °C for 60 s), and a step of cooling (40 °C for 10 s).

[4] = in vitro; conditions: human

COc1cc(C(=O)NC[C@](O)(c2cc(C(C)(C)O)c(F)c(-c3ccc(F)cc3)n2)C(F)(F)F)cc2cc(C)nnc12 [JNJ-8003]
EC50 [1]: 0.00078 µM
CC50 ([2]; Median CC50, LLC-MK2, parallel to HMPV assay): 14 µM
CC50 ([2]; Median CC50, LLC-MK2, parallel to PIV-1 assay): 18 µM
CC50 ([2]; Median CC50, LLC-MK2, parallel to PIV-3 assay): 19 µM
EC50 [3]: 0.0001 µM
CC50 [4]: > 25 µM
